Values of other authors, collected in patent US11603416B2, “Method for preparation of derivatives of gram-positive bacteria surface capsular polysaccharide” (priority 2018, dated 2023).

Tested on: children with severe ASD
Settings: oral administration; effect disappears once the drug is discontinued

SMILES: CN[C@H](CC(C)C)C(=O)N[C@H]1C(=O)N[C@@H](CC(N)=O)C(=O)N[C@H]2C(=O)N[C@H]3C(=O)N[C@H](C(=O)N[C@H](C(=O)O)c4cc(O)cc(O)c4-c4cc3ccc4O)[C@H](O)c3ccc(c(Cl)c3)Oc3cc2cc(c3O[C@@H]2O[C@H](CO)[C@@H](O)[C@H](O)[C@H]2O[C@H]2C[C@](C)(N)[C@H](O)[C@H](C)O2)Oc2ccc(cc2Cl)[C@H]1O [vancomycin]
- child patients whose autism symptoms have been relieved for a short time: 80%
